According to patent US12421257B2, “Compositions and methods for inhibiting group II intron RNA” (YALE UNIVERSITY, priority 2018, dated 2025):
In brackets after ≈: the same amount, converted by molar mass. Entries after “also recorded” stand apart in the source; their conditions may differ.

Legend:
ai5γ group II intron = test: Radioanalytic self-splicing assay of SE RNA (Ki); assay type: biochemical, Saccharomyces cerevisiae; settings: 8 mM MgCl2, 100 mM KCl, pH 7.5, 30° C.
Procedure: Internally labeled SE RNA (2 nM) was incubated with various concentrations of inhibitor compound under near-physiological conditions (in 50 mM MOPS, pH 7.5, 8 mM MgCl2, 100 mM KCl) at 30° C. Aliquots at different time points were quenched and analyzed on 5% denaturing polyacrylamide gel as previously described (Daniels et al., 1996, Journal of molecular biology, 256:31-49). Data were fit to a single-exponential equation to determine the first order rate constants (kobs). The latter were then plotted against the concentration of the inhibitor and fit to the equation for non-competitive inhibition to determine Ki values: kobs=kmax/(1+[I]/Ki), where kobs and kmax are the first order rate constants measured in the presence and in the absence of the inhibitor, respectively, [I] is the concentration of the inhibitor and Ki is the inhibition constant. Experiments were performed four times for API-014, three times for APY-090, Intronistat A, and Intronistat B and twice for the remaining compounds to ensure reproducibility. Data represent average±s.e.m.

C. parapsilosis = test: MIC determination against C. parapsilosis; assay type: cell-based, Candida parapsilosis; settings: Lodderomyces parapsilosis; RPMI-1640, 35° C. or 37° C., turbidity after 24 and 48 hours
Procedure: Minimal inhibitory concentrations (MICs) for C. parapsilosis were determined in a final volume of 100 μl. Fresh stock solutions of control antifungal drugs (Amphotericin B and Itraconazole) and of test compounds were prepared at 3.2 mg/ml and at 12.8 mg/ml respectively in DMSO. After placing the stock in the first well, solutions of test compounds and antifungal controls were serially diluted 1:2 with DMSO into the first […] successive wells of a 12-well row on a 96-well plate (as described above). After dilution, 2.5 μl from each of these 10 wells were transferred onto a separate 96-well plate and diluted with 122.5 μl of RPMI-1640 medium (Sigma). Wells 11 and 12 contained 2.5 μl DMSO and 122.5 μl of RPMI-1640 as a positive growth control (no compound) and sterility control (no inoculum added). A 50 μl volume was taken from each of the RPMI dilutions (wells 1-12) and transferred to the wells of a third 96-well plate (assay plate), where they were mixed with an equal volume (50 μl) of freshly prepared inoculum of C. parapsilosis in RPMI-1640 medium, set at a density to provide the 0.5×10^3 to 2.5×10^3 colony forming units per 1 mL (except for the sterility control). Sterility control was mixed with 50 μl of sterile medium.
The final concentration range of the assay was 0.25-128 μg/ml for test compounds and 0.0625-32 μg/ml for Amphotericin B and Itraconazole. The final concentration of DMSO was 1%. The assay plate was incubated at 35° C. or 37° C. and visually analyzed for turbidity after 24 and 48 hours of incubation. The lowest compound concentration at which no growth was apparent is reported as the MIC. All experiments were performed in triplicate.

HEK-293T cells = test: Cytotoxicity in HEK-293T cells (Cell Titer Glo); assay type: cell-based, human; settings: Homo sapiens, cytotoxicity, 24 hours with compound, read-out: IC50 HEK-293
Procedure: HEK-293T cells were cultured in Dulbecco's Modified Eagle's Medium (DMEM) (Gibco) supplemented with 10% Fetal Bovine Serum (FBS, Gibco) and 100 U/ml of Penicillin-Streptomycin (Gibco) at 37° C. and 5% CO2. For the cytotoxicity experiments, cells were aliquoted into black 96-well plates with a clear bottom (Corning 3603) at a concentration of 10,000 cells per well. The cells were grown at 37° C., 5% CO2 for 5-6 hours, then the medium was replaced with the same medium without FBS and cells were grown at 37° C., 5% CO2 for 24 hours. Freshly prepared stock solutions of test compounds (12.8 mg/ml in DMSO) were serially diluted 1:2 with DMSO into the first 11 successive wells of a 12-well row on a 96-well plate as described above. Well 12 was used as a growth control (no compound). […] After incubation, cell viability was determined using the luminescent Cell Titer Glo cell viability assay (Promega), in which 100 μl of the assay reagent was added to each well of the assay plate. After gentle shaking for 7-10 minutes, the plates were analyzed on a Synergy H1 plate reader (BioTek). Luminescence was plotted against the compound concentration and IC50 values were determined by fitting the data to a 4-parameter logistic function c+(d−c)/(1+(x/a)^b), where a is the IC50, b is the slope parameter, c is the minimum response and d is the maximum response. Experiments were replicated to ensure reproducibility.

[1] = test system: ai5γ group II intron (D135 ribozyme); test: Fluorescent D135 ribozyme cleavage assay (IC50); assay type: biochemical, Saccharomyces cerevisiae; settings: for IC50: D135 ribozyme cleavage of substrate 17/2 DL, 100 mM MgCl2, 500 mM KCl, 37° C., 10 minutes; for In vitro inhibitory activity, SAR statement (in words): relative to parent scaffold
Procedure: The D135 ribozyme (Su et al., 2005, Nucleic Acids Res, 33:6674-6687), fluorescently labeled oligo substrate 17/2 DL (FIG. 1A-FIG. 1D) (both at 20 nM final concentrations in 50 mM MOPS, pH 7.0, 100 mM MgCl2, 0.5M KCl), and the test compounds (final concentration of 10 μM in 50 mM MOPS, pH 7.0, 100 mM MgCl2, 0.5M KCl) were aliquoted onto black non-binding 384-well plates (Corning 3757) using the multidrop combi (ThermoFisherScientific) and pintool (V & P Scientific). The reaction mixtures were incubated at 37° C. for 45 minutes, then the reaction was quenched with 100 mM EDTA and fluorescence intensity was analyzed on a Tecan Infinite multimode plate reader (λex 520 nm, λem 560 nm, 5 nm bandwidth). Data were normalized to untreated wells and wells lacking the D135 ribozyme, and percent of inhibition was calculated using ActivityBase (IDBS). The Z′-factor was calculated as described (Zhang et al., 1999, J Biomol Screen, 4:67-73): Z′=1−3×(σp+σn)/|μp−μn|, • where μp and σn are mean value and standard deviation for the positive control (substrate only), and where μn and σn are mean value and standard deviation for the negative control (no compound). The average Z′-factor from the screen was 0.83±0.03. IC50 Measurement for the Small Molecule Inhibition of the D135 Ribozyme Cleavage Reaction.
Black 96-well plates (Corning 3695) were filled with 50 μl of solution containing 20 nM D135 ribozyme, 20 nM double-labeled substrate 17/2 DL and small molecule inhibitor in 50 mM MOPS, pH 7.0, 100 mM MgCl2 and 500 mM KCl. Small molecule inhibitors were tested at 19 different concentrations ranging from 5 nM to 1 mM. Plates were incubated at 37° C. for 10 minutes, then reaction mixtures were quenched with 100 mM EDTA and analyzed on the Synergy H1 plate reader (BioTek). Each experiment was performed in triplicate. Data were fit to a 4-parameter logistic function c+(d−c)/(1+(x/a)^b), where a is the IC50, b is the slope parameter, c is the minimum response and d is the maximum response. Data are reported as average±s.e.m

Row | SMILES | Ki (ai5γ group II intron) | MIC (C. parapsilosis) | IC50 (HEK-293T cells) | IC50 [1] | In vitro inhibitory activity, SAR statement (in words) [1]
1 | O=C1/C(=C/c2cc(F)c(O)c(F)c2)Oc2cc(O)cc(O)c21 [APY-010] | 140 µM | > 128 µg/mL | 0.55 µg/mL |  | 
2 | O=C1/C(=C/c2cc(O)c(O)c(O)c2)Oc2cc(O)ccc21 [APY-013] | 16.5 µM | 32 µg/mL (≈ 112 µM) | 19 µg/mL | 16.7 µM | 
3 | O=C(c1cc2cc(-c3ccc(CO)cc3)ccc2o1)c1ccc(B(O)O)cc1F [APY-098, [3-Fluoro-4-({5-[4-(hydroxymethyl)phenyl]-1-benzofuran-2-yl}carbonyl)phenyl]boronic acid] | > 1000 µM | > 128 µg/mL | 11 ± 3 µg/mL | > 1000 µM | nearly complete loss of activity
4 | CN(C)CCNC(=O)c1ccc2oc(C(=O)c3cc(O)c(O)c(O)c3)cc2c1 [NED-2018, N-(2-(dimethylamino)ethyl)-2-(3,4,5-trihydroxybenzoyl)-benzofuran-5-carboxamide] | 0.62 ± 0.03 µM | 16 µg/mL (≈ 41.6 µM) | > 128 µg/mL | 9 ± 4 µM | 
5 | O=C(N/N=C/c1ccccc1O)c1cc(O)c(O)c(O)c1 [APY-021] | 9.4 µM | 32 µg/mL (≈ 111 µM) |  | 14 µM | 
6 | O=C(c1cc(O)c(O)c(O)c1)c1cc2cc(F)ccc2o1 [APY-070] | 1 µM | 32 µg/mL (≈ 111 µM) | > 128 µg/mL | 4.2 µM | 
7 | COc1cc(CCC(=O)c2cc(O)c(O)c(O)c2)cc(OC)c1OC [APY-069] | 29 µM | 32 µg/mL (≈ 91.9 µM) | > 128 µg/mL | 27 µM | 
8 | O=C(N/N=C/c1ccc(-c2ccc(Br)cc2)o1)c1cc(O)c(O)c(O)c1 [NED-2038, (E)-N′-((5-(4-bromophenyl)furan-2-yl)methylene)-3,4,5-trihydroxybenzohydrazide] | 1.7 µM | 32 µg/mL (≈ 76.7 µM) | 1.1 µg/mL | 2.7 ± 0.5 µM | 
9 | COc1cccc(/C=N/NC(=O)c2cc(O)c(O)c(O)c2)c1O [Compound 2] | 8 µM | 32 µg/mL (≈ 101 µM) | 34 µg/mL | 7.3 µM | 
10 | O=C(N/N=C/c1ccc(O)cc1O)c1cc(O)c(O)c(O)c1 [APY-022] | 6.5 µM | 32 µg/mL (≈ 105 µM) | 17.6 µg/mL | 5.5 µM | 
11 | COc1ccc(CNC(=O)c2cc(O)c(O)c(O)c2)cc1OC [APY-077, N-[(3,4-Dimethoxyphenyl)methyl]-3,4,5-trihydroxybenzamide] | 44 ± 11 µM | 64 µg/mL (≈ 200 µM) | > 32 µg/mL | 30 ± 4 µM | substantial loss of activity
12 | O=C(c1cc(O)c(O)c(O)c1)c1cc2cc(-c3ccc(C(F)(F)F)nc3)ccc2o1 [APY-097, 5-({5-[6-(Trifluoromethyl)pyridin-3-yl]-1-benzofuran-2-yl}carbonyl)benzene-1,2,3-triol] | 3.9 ± 0.5 µM | 8 µg/mL (≈ 19.3 µM) | 5.4 ± 0.6 µg/mL | 2.8 ± 0.2 µM | 
13 | COc1ccc(CCNC(=O)c2cc(O)c(O)c(O)c2)cc1OC [APY-078] | 16 µM | 64 µg/mL (≈ 192 µM) | > 128 µg/mL | 27 µM | 
14 | O=C(CCc1ccc2ccccc2c1)c1cc(O)c(O)c(O)c1 [APY-076] | 5.4 µM | 16 µg/mL (≈ 51.9 µM) | 7 µg/mL | 8 µM | 
15 | O=C1/C(=C/c2ccc(O)c(O)c2)Oc2cc(O)cc(O)c21 [APY-007, (Z)-2-(3,4-Dihydroxybenzylidene)-4,6-dihydroxybenzofuran-3(2H)-one] | 156 ± 34 µM | > 128 µg/mL | > 128 µg/mL | > 100 µM | nearly complete loss of activity; also recorded: inactivated both in vitro and in vivo
16 | O=C(c1cc(O)c(O)c(O)c1)c1cc2c(ccc3ccccc32)o1 [APY-071] | 0.15 µM | 16 µg/mL (≈ 50 µM) | 6 µg/mL | 0.3 µM | 
17 | COc1cc(/C=N/NC(=O)c2cc(O)c(O)c(O)c2)cc(O)c1O [APY-038] | 1.1 µM | 8 µg/mL (≈ 23.9 µM) | 15.9 µg/mL | 1.3 µM | 
18 | CCN(CC)C(=O)c1ccc(-c2ccc3oc(C(=O)c4cc(O)c(O)c(O)c4)cc3c2)cc1 [APY-091, N,N-Diethyl-4-{2-[(3,4,5-trihydroxyphenyl)carbonyl]-1-benzofuran-5-yl}benzamide] | 4.5 ± 0.9 µM | 8 µg/mL (≈ 18 µM) | 5.35 ± 0.05 µg/mL | 2.4 ± 0.4 µM | 
19 | C[C@H](NC(=O)c1cc(O)c(O)c(O)c1)c1cccc2ccccc12 [APY-079] | 32 µM | 32 µg/mL (≈ 99 µM) | 4.6 µg/mL | 20 µM | 
